Molecules are shown by their SMILES. pEC50: −log10 of the molar value.

Broadly, the pEC50 is −log10 of the EC50, conventionally taken in molar units. Higher therefore signals a low EC50.

The target of this test is T1, human FSH receptor (Homo sapiens, UniProt P23945).
T1 construct: expressed in transfected cells
T1 sequence (P23945 18-695): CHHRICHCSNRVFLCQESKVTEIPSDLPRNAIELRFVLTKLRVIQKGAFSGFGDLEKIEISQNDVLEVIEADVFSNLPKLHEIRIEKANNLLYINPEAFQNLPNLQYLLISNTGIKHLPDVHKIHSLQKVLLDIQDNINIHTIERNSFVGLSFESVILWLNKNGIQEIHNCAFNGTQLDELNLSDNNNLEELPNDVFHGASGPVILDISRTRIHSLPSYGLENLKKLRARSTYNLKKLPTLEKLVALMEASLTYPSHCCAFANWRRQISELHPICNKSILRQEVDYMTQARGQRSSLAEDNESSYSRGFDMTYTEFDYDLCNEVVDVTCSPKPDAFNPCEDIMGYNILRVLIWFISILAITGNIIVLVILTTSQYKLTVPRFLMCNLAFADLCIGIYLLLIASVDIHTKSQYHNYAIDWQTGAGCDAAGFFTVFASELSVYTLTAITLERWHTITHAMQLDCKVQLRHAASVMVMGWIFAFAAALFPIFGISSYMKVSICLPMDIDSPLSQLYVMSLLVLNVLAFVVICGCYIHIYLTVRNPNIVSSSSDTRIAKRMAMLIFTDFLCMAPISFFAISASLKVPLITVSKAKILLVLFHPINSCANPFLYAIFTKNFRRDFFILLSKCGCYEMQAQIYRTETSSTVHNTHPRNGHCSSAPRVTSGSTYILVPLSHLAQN
Put plainly: hFSHRago (CHO luc): agonistic activity at the human FSH receptor expressed in CHO cells, CRE-luciferase reporter. The test is classed as cell-based. The conditions noted are these: CHO cells stably transfected with human FSH receptor and CRE/luciferase reporter; 4 hours of incubation. For orientation: Reporter assays use an easily measured gene product as a stand-in for the process of interest.
From the text: The term EC50 means the concentration of the test compound that elicits half-maximal (50%) stimulation compared to the compound's maximally attainable effect. The values can be determined e.g. in a cell line transfected with a FSH receptor gene and cotransfected with a cAMP responsive element/promoter directing the expression of a reporter gene. Values can be determined using the software program such as MathIQ (version 2.0, ID Business Solutions Limited).
Agonistic activity of the compounds at the human FSH receptor was determined in Chinese Hamster Ovary (CHO) cells stably transfected with the human FSH receptor and cotransfected with a cAMP responsive element (CRE)/promoter directing the expression of a firefly luciferase reporter gene. […] Cells (7,500 cells/well of a 384 well plate) were incubated in Dulbecco' minimal essential F12 modified medium (Invitrogen), supplemented with 1 μg/ml bovine insulin, 5 μg/ml human apo-transferrin, 80 U/ml penicillin G and 80 μg/ml streptomycin with the test compounds (concentration between 0.0316 nM and 10.0 μM) in duplicate in a humidified atmosphere (95%) at 5-7% CO2 and 37° C. The final concentration of DMSO was 1%. After 4 hours of incubation, plates were allowed to adjust to room temperature for 1 hour. Then, Luclite (PerkinElmer) solution was added to the wells and cells were allowed to lyse for at least 1 hour at room temperature. Subsequently, luciferase activity was measured in a luminescence counter. The signal is expressed as counts per second (cps). The EC50 (concentration of the test compound that elicits half-maximal (50%) luciferase stimulation compared to the compound's maximally attainable effect) and efficacy values (maximal effect of the test compound as percentage of the maximal effect of recombinant human FSH) of the compounds were determined using the software program MathIQ (version 2.0, ID Business Solutions Limited).
In turn, `COc1cc2c(cc1OC(C)C)-c1c(-c3cccs3)cc(C(=O)N3CCCN(C(=O)C4CCCO4)CC3)n1CC2` (stereo not drawn) [Example 1, (9-Isopropoxy-8-methoxy-1-thiophen-2-yl-5,6-dihydro-pyrrolo[2,1-α]isoquinolin-3-yl)-[4-(tetrahydro-furan-2-carbonyl)-[1,4]diazepan-1-yl]-methanone] had a pEC50 of 9.05.

Take `COc1cc2c(cc1OC(C)C)-c1c(-c3cccs3)cc(C(=O)N3CCCN(C(=O)CSC)CC3)n1CC2` [Example 2, 1-[4-(9-Isopropoxy-8-methoxy-1-thiophen-2-yl-5,6-dihydro-pyrrolo[2,1-α]isoquinoline-3-carbonyl)-[1,4]diazepan-1-yl]-2-methylsulfanyl-ethanone]: the pEC50 was 9.30. The result for `COc1cc2c(cc1OC(C)C)-c1c(-c3cccs3)cc(C(=O)N3CCCN(S(=O)(=O)c4cccs4)CC3)n1CC2` [Example 3, (9-Isopropoxy-8-methoxy-1-thiophen-2-yl-5,6-dihydro-pyrrolo[2,1-α]isoquinolin-3-yl)-[4-(thiophene-2-sulfonyl)-[1,4]diazepan-1-yl]-methanone] reads 8.34; that for `COc1cc2c(cc1OC(C)C)-c1c(-c3cccs3)cc(C(=O)N3CCCN(C(=O)C(O)C(F)(F)F)CC3)n1CC2` (stereo not drawn) [Example 4, 3,3,3-Trifluoro-2-hydroxy-1-[4-(9-isopropoxy-8-methoxy-1-thiophen-2-yl-5,6-dihydro-pyrrolo[2,1-α]isoquinoline-3-carbonyl)-[1,4]diazepan-1-yl]-propan-1-one], 8.89. As for `COc1cc2c(cc1OC(C)C)-c1c(-c3cccs3)cc(C(=O)N3CCCN(C(=O)CCN)CC3)n1CC2` [Example 5, 3-Amino-1-[4-(9-isopropoxy-8-methoxy-1-thiophen-2-yl-5,6-dihydro-pyrrolo[2,1-α]isoquinoline-3-carbonyl)-[1,4]diazepan-1-yl]-propan-1-one], the negative-log EC50 (pEC50) was 5.85.

In turn, `CNCC(=O)N1CCCN(C(=O)c2cc(-c3cccs3)c3n2CCc2cc(OC)c(OC(C)C)cc2-3)CC1` [Example 6, 1-[4-(9-Isopropoxy-8-methoxy-1-thiophen-2-yl-5,6-dihydro-pyrrolo[2,1-α]isoquinoline-3-carbonyl)-[1,4]diazepan-1-yl]-2-methylamino-ethanone] had a pEC50 of 6.58. Against the preceding molecule, the pEC50 is 0.73 log units higher.

`COc1cc2c(cc1OC(C)C)-c1c(-c3cccs3)cc(C(=O)N3CCCN(C(=O)C4CCC4)CC3)n1CC2` [Example 7c, (4-Cyclobutanecarbonyl-[1,4]diazepan-1-yl)-(9-isopropoxy-8-methoxy-1-thiophen-2-yl-5,6-dihydro-pyrrolo[2,1-α]isoquinolin-3-yl)-methanone] showed a pEC50 of 8.77. Against the preceding molecule, the pEC50 is 2.19 log units higher. In turn, `COc1cc2c(cc1OC(C)C)-c1c(-c3cccs3)c(C#N)c(C(=O)N3CCCN(C(=O)C4CCC4)CC3)n1CC2` [Example 7d, 3-(4-Cyclobutanecarbonyl-[1,4]diazepane-1-carbonyl)-9-isopropoxy-8-methoxy-1-thiophen-2-yl-5,6-dihydro-pyrrolo[2,1-α]isoquinoline-2-carbonitrile] had a pEC50 of 9.52. In the case of `COc1cc2c(cc1OC(C)C)-c1c(-c3cccs3)cc(C(=O)N3CCCN(C(=O)C4(Br)CCC4)CC3)n1CC2` [Example 8, [4-(1-Bromo-cyclobutanecarbonyl)-[1,4]diazepan-1-yl]-(9-isopropoxy-8-methoxy-1-thiophen-2-yl-5,6-dihydro-pyrrolo[2,1-α]isoquinolin-3-yl)-methanone], the negative-log EC50 (pEC50) is 8.17.

In turn, `COc1cc2c(cc1OC(C)C)-c1c(-c3cccs3)cc(C(=O)N3CCCN(C(=O)C4(SC)CCC4)CC3)n1CC2` [Example 9, (9-Isopropoxy-8-methoxy-1-thiophen-2-yl-5,6-dihydro-pyrrolo[2,1-α]isoquinolin-3-yl)-[4-(1-methylsulfanyl-cyclobutanecarbonyl)-[1,4]diazepan-1-yl]-methanone] gave a pEC50 of 7.79.

Source of the values: patent US8394789B2, “(Dihydro)pyrrolo[2,1-α]isoquinolines” (MSD Oss B.V., priority 2008, dated 2013).
